Source: US20090068290A1, “BIFEPRUNOX DOSES FOR TREATING SCHIZOPHRENIA” (priority 2006, published 2009)

Assays:
[1] = tested on: adult subjects with schizophrenia; assay: PANSS total score, Clinical Study One (6-week, risperidone-referenced); format: in vivo, human; conditions: for Change from Baseline in PANSS Total Score, Mean (S.D.) / Change from Baseline in PANSS Total Score, Median / PANSS Total Score, Trt Effect (bifeprunox minus placebo mean change from Baseline): ITT; for PANSS Total Score, Trt Effect (bifeprunox minus placebo mean change from Baseline): ANCOVA
Procedure: (§1) There were five treatment groups in this study. […] Study medication was administered once daily. After Baseline measurements were performed, the titration phase was begun. Bifeprunox treated subjects were titrated up to 5 mg, 10 mg or 20 mg according to a standardized titration schedule (Day 1: 0.125 mg, Day 2: 0.25 mg, Day 3: 0.5 mg, Day 4: 1.0 mg, Day 5: 2.0 mg, Day 6: 5.0 mg, Day 7: 10.0 mg, Day 8: 20 mg). When the assigned dose was reached, subjects were maintained at that dose for the remainder of the six-week treatment period.
Test Product. Dose and Mode of Administration: Bifeprunox tablets, total daily dose 0.125 mg to 20 mg administered orally using a once daily dosing regimen.
The change in the Positive and Negative Symptom Scale (PANSS) total score, from baseline to endpoint, was the primary outcome measure. Secondary efficacy measures included: PANSS positive, PANSS negative, PANSS general psychopathology (GPP) score, PANSS-derived Brief Psychiatric Rating Scale (BPRS) score, Clinical Global Impressions-Severity of Illness (CGI-S), CGI-Improvement (CGI-I) scores, and responder rates. Safety and tolerability evaluations included extrapyramidal symptoms (EPS), weight gain, lipid profile, and serum prolactin.

[2] = tested on: adult subjects with schizophrenia; assay: PANSS responder rates, Clinical Study One; format: in vivo, human; conditions: Bifeprunox 5 mg
Procedure: as §1

[3] = Bifeprunox 10 mg, Endpoint LOCF
[4] = Bifeprunox 20 mg, Endpoint LOCF

SMILES: O=c1[nH]c2cccc(N3CCN(Cc4cccc(-c5ccccc5)c4)CC3)c2o1 [Bifeprunox, 7-[4-([1,1′-biphenyl]-3-ylmethyl)-1-piperazinyl]-2(3H)-benzoxazolone]
- Change from Baseline in PANSS Total Score, Mean (S.D.) ([1]; Bifeprunox 5 mg, Endpoint LOCF): −9.7 (17.5)
- Change from Baseline in PANSS Total Score, Median ([1]; Bifeprunox 5 mg, Endpoint LOCF): −8
- PANSS Total Score, Trt Effect (bifeprunox minus placebo mean change from Baseline) ([1]; Bifeprunox 5 mg, Endpoint LOCF): −4.1
- Change from Baseline in PANSS Total Score, Mean (S.D.) ([1]; Bifeprunox 5 mg, Week 1, LOCF): −3.9 (13.1)
- Change from Baseline in PANSS Total Score, Median ([1]; Bifeprunox 5 mg, Week 1, LOCF): −4
- Change from Baseline in PANSS Total Score, Mean (S.D.) ([1]; Bifeprunox 5 mg, Week 2, LOCF): −6.7 (14.9)
- Change from Baseline in PANSS Total Score, Median ([1]; Bifeprunox 5 mg, Week 2, LOCF): −7
- Change from Baseline in PANSS Total Score, Mean (S.D.) ([1]; Bifeprunox 5 mg, Week 3, LOCF): −7.7 (16.1)
- Change from Baseline in PANSS Total Score, Median ([1]; Bifeprunox 5 mg, Week 3, LOCF): −7
- Change from Baseline in PANSS Total Score, Mean (S.D.) ([1]; Bifeprunox 5 mg, Week 4, LOCF): −8.7 (17.1)
- Change from Baseline in PANSS Total Score, Median ([1]; Bifeprunox 5 mg, Week 4, LOCF): −7
- Change from Baseline in PANSS Total Score, Mean (S.D.) [1, 3]: −5.0 (18.3)
- Change from Baseline in PANSS Total Score, Median [1, 3]: −4
- PANSS Total Score, Trt Effect (bifeprunox minus placebo mean change from Baseline) [1, 3]: 0.6
- Change from Baseline in PANSS Total Score, Mean (S.D.) ([1]; Bifeprunox 10 mg, Week 1, LOCF): −2.9 (11.7)
- Change from Baseline in PANSS Total Score, Median ([1]; Bifeprunox 10 mg, Week 1, LOCF): −1
- Change from Baseline in PANSS Total Score, Mean (S.D.) ([1]; Bifeprunox 10 mg, Week 2, LOCF): −4.2 (14.6)
- Change from Baseline in PANSS Total Score, Median ([1]; Bifeprunox 10 mg, Week 2, LOCF): −3
- Change from Baseline in PANSS Total Score, Mean (S.D.) ([1]; Bifeprunox 10 mg, Week 3, LOCF): −4.6 (17.4)
- Change from Baseline in PANSS Total Score, Median ([1]; Bifeprunox 10 mg, Week 3, LOCF): −3
- Change from Baseline in PANSS Total Score, Mean (S.D.) ([1]; Bifeprunox 10 mg, Week 4, LOCF): −4.1 (17.2)
- Change from Baseline in PANSS Total Score, Median ([1]; Bifeprunox 10 mg, Week 4, LOCF): −5
- Change from Baseline in PANSS Total Score, Mean (S.D.) [1, 4]: −11.3 (17.0)
- Change from Baseline in PANSS Total Score, Median [1, 4]: −11
- PANSS Total Score, Trt Effect (bifeprunox minus placebo mean change from Baseline) [1, 4]: −5.8
- Change from Baseline in PANSS Total Score, Mean (S.D.) ([1]; Bifeprunox 20 mg, Week 1, LOCF): −6.3 (11.5)
- Change from Baseline in PANSS Total Score, Median ([1]; Bifeprunox 20 mg, Week 1, LOCF): −5
- Change from Baseline in PANSS Total Score, Mean (S.D.) ([1]; Bifeprunox 20 mg, Week 2, LOCF): −9.0 (14.0)
- Change from Baseline in PANSS Total Score, Median ([1]; Bifeprunox 20 mg, Week 2, LOCF): −8
- Change from Baseline in PANSS Total Score, Mean (S.D.) ([1]; Bifeprunox 20 mg, Week 3, LOCF): −11.2 (14.5)
- Change from Baseline in PANSS Total Score, Median ([1]; Bifeprunox 20 mg, Week 3, LOCF): −11
- Change from Baseline in PANSS Total Score, Mean (S.D.) ([1]; Bifeprunox 20 mg, Week 4, LOCF): −11.2 (15.9)
- Change from Baseline in PANSS Total Score, Median ([1]; Bifeprunox 20 mg, Week 4, LOCF): −11
- superiority to placebo, primary efficacy endpoint (PANSS total score) ([1]; bifeprunox 5 mg, 6 weeks): did not show superiority to placebo
- improvement compared to placebo, any efficacy endpoint ([1]; bifeprunox 10 mg, 6 weeks): did not show statistically greater improvement for any efficacy endpoint
- efficacy compared to placebo (PANSS total and subscale scores) ([1]; bifeprunox 20 mg once daily, 6 weeks): effective in reducing both positive and negative symptoms of schizophrenia
- greater improvement from Baseline in PANSS total score compared with placebo ([1]; bifeprunox 20 mg, 6 weeks): 5.8 point
- reduction in the PANSS total score compared to placebo ([1]; bifeprunox 20 mg, 6 weeks (Example 4)): statistically significant (P<0.05) compared to placebo at Week 3 and Week 6/endpoint
- PANSS responder rate, 20% definition ([2]; Endpoint LOCF): 28%
- PANSS Responder at Endpoint (LOCF), 20% Definition ([2]; ITT): 31 (28) n (%)
- PANSS Responder at Endpoint (LOCF), 25% Definition ([2]; ITT): 25 (23) n (%)
